According to paper PMC12670779, “Targeting the CXCL12/CXCR4 pathway by an optimized derivative or EPI-X4 preserves chondrocyte function and offers a novel therapeutic approach in rheumatic diseases” (Arthritis Research & Therapy, 2025):
Where a name gives a salt, the structure may show the parent alone. Read-outs that look alike come from different tables or passages of the source. Residues, ends and D or L forms follow the SMILES beside them.

Experiments:
[1] = test system: human articular chondrocytes (hAC); assay: Ki-67 immunocytochemistry (proliferation); assay type: cell-based; conditions: 48 h; 200 ng/mL CXCL12; simultaneous addition of inhibitors 1 µM; n = 4
Protocol: On the next day, an Alexa Fluor 488 labled anti-rabbit antibody (1:200, ab150077, Abcam) was added and nuclei were stained with DAPI (0.25 µg/mL). The fluorescence microscope Axioskop 2 mot plus was used for imaging and Ki-67 appeared in green and nuclei in blue.

[2] = test system: human articular chondrocytes (hAC); assay: Osteogenic differentiation of hAC, Alizarin Red S staining (calcium deposition); assay type: cell-based; conditions: 21 d osteogenic differentiation medium; 200 ng/mL CXCL12; inhibitors 1 µM; n = 5
Protocol: (§1) hAC were seeded in passage 2 at a density of 1 × 10^4 cells/cm^2 and osteogenic differentiation was induced on the next day by addition of osteogenic differentiation medium [ODM: DMEM, 10% FBS, 1 g/L glucose, 1% L-glutamine, 1% penicillin/streptomycin, 10 mM β-glycerophosphate disodium salt hydrate (Sigma-Aldrich), 0.1 µM dexamethasone, 200 µM 2-phospho-L-ascorbic acid trisodium salt]. […] Medium was changed twice a week and additives were refreshed every time. Cells cultured in BM served as negative control.
Evaluation of osteogenic differentiation was carried out by means of an Alizarin Red S staining which indicates calcium deposition. At first, cells were incubated in 70% ethanol for 1 h and subsequently stained with a 40 mM Alizarin Red S solution. For quantification, the cells were washed carefully and bound Alizarin Red S was dissolved in 10% Cetylpyridinium (Sigma-Aldrich). With a multimode microplate reader Infinite M200 Pro (Tecan Austria GmbH, Crailsheim, Germany), absorbance at 652 nm was measured and the amount of Alizarin Red S was calculated based on a standard calibration curve.

[3] = test system: human articular chondrocytes (hAC); assay: Gene expression during osteogenic differentiation of hAC (qRT-PCR); assay type: cell-based; conditions: 14 d osteogenic differentiation; 200 ng/mL CXCL12; inhibitors 1 µM; n = 4
Protocol: as §1

[4] = target: T1, ACKR3 (Homo sapiens, UniProt P25106); conditions: cited from earlier work
T1 sequence (P25106 whole entry): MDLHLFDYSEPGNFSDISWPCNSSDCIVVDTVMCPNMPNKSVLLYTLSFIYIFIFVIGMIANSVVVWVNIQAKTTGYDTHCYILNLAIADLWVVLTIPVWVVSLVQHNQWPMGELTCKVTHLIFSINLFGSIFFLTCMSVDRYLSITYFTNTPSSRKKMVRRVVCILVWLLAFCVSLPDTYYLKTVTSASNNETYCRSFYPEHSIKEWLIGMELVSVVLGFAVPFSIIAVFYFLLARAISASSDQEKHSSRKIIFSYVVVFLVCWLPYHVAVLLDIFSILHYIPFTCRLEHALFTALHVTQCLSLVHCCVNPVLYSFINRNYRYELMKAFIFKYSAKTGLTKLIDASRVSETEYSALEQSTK
T1 sequence (P32121 whole entry partner): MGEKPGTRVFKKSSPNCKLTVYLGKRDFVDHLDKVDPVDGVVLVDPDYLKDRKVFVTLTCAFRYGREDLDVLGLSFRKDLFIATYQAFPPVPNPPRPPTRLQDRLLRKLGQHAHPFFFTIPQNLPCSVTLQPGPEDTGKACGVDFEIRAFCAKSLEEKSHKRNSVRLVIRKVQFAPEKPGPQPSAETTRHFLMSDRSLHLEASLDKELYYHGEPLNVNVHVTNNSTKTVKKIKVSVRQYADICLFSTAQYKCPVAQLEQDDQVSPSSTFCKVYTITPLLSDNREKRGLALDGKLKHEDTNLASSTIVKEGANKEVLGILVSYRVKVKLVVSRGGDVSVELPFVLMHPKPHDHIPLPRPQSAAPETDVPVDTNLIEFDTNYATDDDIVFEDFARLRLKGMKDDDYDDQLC
Excerpt: (§2) In case of CXCR4, there is evidence that binding of CXCL12 promotes a hypertrophic phenotype in chondrocytes, characterized by enhanced catabolic enzyme production (e.g., matrix metalloproteinase 13 (MMP-13)) and collagen type X expression.

[5] = test system: Dunkin Hartley guinea pigs; conditions: cited from earlier work
Excerpt: as §2

[6] = test system: mice; conditions: cited from earlier work
Excerpt: as §2

[7] = test system: mice; conditions: cited from earlier work; remark: listed apart in the source
Excerpt: as §2, with “expression. […] It should also be considered that the pathophysiological mechanisms are not mediated by chondrocytes alone.” for “expression.”

[8] = test system: mouse; conditions: both inflammatory mouse models; cited from earlier work
Excerpt: To date, three CXCR4 antagonist have been approved for clinical applications. However, these ligands are only approved for autologous stem cell transplantation in Non-Hodgkin’s lymphoma and the treatment of the WHIM syndrome, a rare congenital immunodeficiency disorder. One decade ago, another promising CXCR4 inhibitor was identified – the Endogenous Peptide Inhibitor of CXCR4, termed EPI-X4 [33]. EPI-X4 is a 16 amino acids long endogenous fragment of human serum albumin and specifically binds to CXCR4 thereby acting as an antagonist and inverse agonist. Using rational dru ...

[9] = test system: MSCs; conditions: AMD3100 400 µM, cited from earlier work
[10] = cited from earlier work
[11] = target: T1, ACKR3; assay: β-arrestin-2 recruitment at ACKR3, agonism (NanoBiT, transfected HEK293T cells); assay type: cell-based; parameters: SmBiT (NanoBiT fragment); expressed in transfected cells; host or cells: HEK293T; conditions: compound alone
Protocol: Fifteen thousand HEK293T cells were seeded in 92 µL complete DMEM medium (supplemented with 10% FCS, 1% L-Glutamine and 1% penicillin/streptomycin) and allowed to adhere overnight. On the next day cells were transfected with plasmids containing a β-arrestin-2 coupled to a SmBiT and a CXCR4 or ACKR3 construct coupled to the LgBiT of the NanoBiT protein–protein-interaction assay system. The SmBiT was coupled to the intracellular C-term of the receptor, while the LgBiT was coupled to the N-term of the ß-arrestin. For the transfection, LT1 transfection reagent was used according to manufacturer’s instructions. The next day, medium was changed to 100µL pre-warmed OptiMEM before luminescence measurements were initiated.
For agonism measurements, single compounds were added to the wells after 10 min of background measurement. Baseline correction was performed in the same manner and resulting AUCs were compared to the buffer-only control wells to calculate n-fold ß-arrestin induction.

[12] = target: T2, CXCR4 (Homo sapiens, UniProt P61073); assay: Inhibition of CXCL12-induced β-arrestin-2 recruitment at CXCR4 (NanoBiT, transfected HEK293T cells); assay type: cell-based
T2 construct: SmBiT (NanoBiT fragment); expressed in transfected cells; host or cells: HEK293T
T2 sequence (P61073 whole entry, the tested form may be a part): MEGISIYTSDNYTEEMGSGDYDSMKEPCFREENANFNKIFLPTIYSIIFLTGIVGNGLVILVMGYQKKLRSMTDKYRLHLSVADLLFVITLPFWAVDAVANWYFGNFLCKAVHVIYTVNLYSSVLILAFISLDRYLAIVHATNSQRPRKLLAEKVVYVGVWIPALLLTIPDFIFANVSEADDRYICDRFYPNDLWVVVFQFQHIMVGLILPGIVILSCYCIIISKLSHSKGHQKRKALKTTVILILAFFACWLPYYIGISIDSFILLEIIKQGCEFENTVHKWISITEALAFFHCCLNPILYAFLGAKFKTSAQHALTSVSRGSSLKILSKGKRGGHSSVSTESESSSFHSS
Protocol: Fifteen thousand HEK293T cells were seeded in 92 µL complete DMEM medium (supplemented with 10% FCS, 1% L-Glutamine and 1% penicillin/streptomycin) and allowed to adhere overnight. On the next day cells were transfected with plasmids containing a β-arrestin-2 coupled to a SmBiT and a CXCR4 or ACKR3 construct coupled to the LgBiT of the NanoBiT protein–protein-interaction assay system. […] For the transfection, LT1 transfection reagent was used according to manufacturer’s instructions. The next day, medium was changed to 100µL pre-warmed OptiMEM before luminescence measurements were initiated.
For antagonism measurements, cells were first supplied with compounds and 10 min later with 30 nM CXCL12. Subsequently, luminescence signal was measured over 1 h. Baseline luminescence of each well in the first 10 min was averaged and used to calculate the signal-to-noise ratio for all subsequent time points of the same well. The signal-to-noise ratios were further recalculated as a ratio to the average of buffer-only treated wells. These values were plotted over time and areas under curve (AUCs) were determined for each well. Data were normalized to buffer-only wells as 0% and CXCL12-only treated wells as 100%.

[13] = test system: human articular chondrocytes (hAC); assay: alamarBlue cytotoxicity/cell proliferation assay; assay type: cell-based; conditions: 24 h; 200 ng/mL CXCL12; CXCR4 inhibitors 1 µM in combination with CXCL12 or alone; n = 5
Protocol: (§3) During experiments, hAC were cultured in medium with reduced FBS content (5%) and stimulated with 200 ng/mL CXCL12, 1 µM compounds and/or 10 ng/mL IL-1β. Stress-induced premature senescence (SIPS) was induced by Doxorubicin (Doxo) (Selleckchem) treatment. The senescent phenotype was confirmed as previously described. In brief, hAC were exposed to 0.1 µM Doxo for 7 days. Doxo was refreshed three times per week.
To quantitatively assess the cell proliferation and cytotoxicity of hAC, an alamarBlue (BioRad, Munich, Germany) assay was used. The assay is based on the conversion of non-fluorescent resazurin to fluorescent resorufin during cellular respiration. The fluorescence intensity of resorufin was measured at 550 nm excitation and 590 nm emission with a multimode microplate reader Infinite M200 Pro (Tecan, Crailsheim, Germany). Unstimulated cells served as baseline (100% cell viability).

[14] = test system: human cartilage explants; assay: Live/dead viability/cytotoxicity assay in cartilage explants; assay type: cell-based; conditions: day 7; 200 ng/mL CXCL12 with or without CXCR4 inhibitors 1 µM; n = 5
Protocol: A Live/Dead Viability/Cytotoxicity Assay (Live Technologies) was applied to determine the number of living and dead cells in cartilage explants. A small tissue section of 0.5 mm thickness was extracted from an unfixed cartilage explant and incubated for 40 min in a staining solution (1 µM calcein and 2 µM ethidium homodimer-1). Microscopic analysis was carried out with a Axioskop 2 mot plus microscope and using a z-stack model (AxioVision software).

[15] = test system: human articular chondrocytes (hAC); assay: Gene expression of hypertrophy markers in isolated hAC (qRT-PCR); assay type: cell-based; conditions: 48 h; 200 ng/mL CXCL12; n = 4
Protocol: as §3

[16] = test system: human articular chondrocytes (hAC); assay: Chondrogenic re-differentiation of hAC in pellet culture, histological scoring; assay type: cell-based; conditions: 28 d in chondrogenic differentiation medium; 200 ng/mL CXCL12; inhibitors 1 µM; n ≥ 4
Protocol: Pellet cultures were generated containing 3.5 × 10^5 hAC in passage 3 and were cultured in chondrogenic differentiation medium [SFM: DMEM, 4.5 g/L glucose, 1% L-glutamine, 1% penicillin/streptomycin, 200 μM 2-phospho-L-ascorbic acid trisodium salt, 0.1% Insulin-Transferrin-Selenium, 0.1 µM dexamethasone (Sigma-Aldrich), 40 µg/mL L-proline (Sigma-Aldrich), 1% pyruvate, 10 ng/mL rhTGF-β3 (PeproTech), 10 ng/mL rhBMP6 (PeproTech)]. The medium was changed twice per week and 200 ng/mL CXCL12 and 1 µM compounds was added. After 28 days, resulting cell pellets were embedded in paraffin and prepared for histology (Collagen type II-IHC and Safranin O staining). For evaluation, a previously established scoring system was used (supplementary Table S2).

[17] = test system: human articular chondrocytes (hAC); assay: Wound healing assay; assay type: cell-based; conditions: 24 h; 200 ng/mL CXCL12; inhibitors 1 µM; 5% FBS; n ≥ 5
Protocol: At first, a 2 Well Culture-Insert (Ibidi, Gräfelfing, Germany) was attached on a well of a 24 well plate. In each well of the insert, 70 µL cell suspension containing 20,000 hAC (passage 1 or 2) was added and incubated overnight. Next, medium with reduced FBS content (5%) was added and the insert carefully removed. […] Images were captured (Canon EOS 700D camera (Canon, Krefeld, Germany)) after 0 h and 24 h. Cells migrated into the gap were manually counted as previously described.

[18] = test system: human articular chondrocytes (hAC); assay: Live cell imaging of undirected migration; assay type: cell-based; conditions: 200 ng/mL CXCL12; inhibitors 1 µM; monitored for 10 h (method), legend says 48 h; normalized to untreated control; n = 5
Protocol: Subsequently, cell localization was monitored for 10 h with a Live Cell Imaging Microscope Leica DMI6000 I (Leica Microsystems, Wetzlar, Germany). Images were acquired every 30 min and at least 6 cells of each well were manually tracked with ImageJ 2.9.0. The average migration distance was calculated and values were normalized to the untreated control.

## c1cc(CN2CCCNCCNCCCNCC2)ccc1CN1CCCNCCNCCCNCC1 [AMD3100, AMD3100 octahydrochloride hydrate]
[1]
  proliferation (Ki-67-positive cells): not altered
[2]
  Ca2+ deposition / matrix calcification (Alizarin Red S): could not find any influence
[3]
  expression of the hypertrophic marker COL10A1 during osteogenic differentiation: significantly reduced
  gene expression of osteogenic markers (ALPL, RUNX2, SP7, IBSP): could not find any influence
[4]
  activity at ACKR3: weak allosteric agonist
[5]
  spontaneous OA development: attenuate
[6]
  collagen-induced arthritis (CIA): attenuate
[7]; mice
  surgically-induced OA: attenuate
[7]; mouse model, delivery to subchondral bone via an osmotic pump
  severity of surgically-induced OA on inhibition in subchondral bone: reduced the severity
[8]
  activity in mouse models of atopic dermatitis and eosinophilic asthma: only poorly active
[9]
  matrix calcification during in vitro osteogenesis of MSCs: not affected
[9]; to a limited extend
  gene expression of osteogenic markers during in vitro osteogenesis of MSCs: impaired
[10]
  clinical peak plasma concentrations: ~ 1 μM
[11]; concentrations up to 10 µM
  agonistic activity to recruit β-arrestin-2 at ACKR3: weak agonistic activity

## CC[C@H](C)[C@H](N)C(=O)N[C@@H](CC(C)C)C(=O)N[C@@H](CCCNC(=N)N)C(=O)N[C@@H](Cc1c[nH]c2ccccc12)C(=O)N[C@@H](CO)C(=O)N[C@@H](CCCNC(=N)N)C(=O)N[C@@H](CCCCN)C(=O)N[C@@H](CC(C)C)C(=O)N1CCC[C@H]1C(=O)N[C@@H](CS)C(=O)N[C@H](C(=O)N[C@@H](CO)C(=O)O)C(C)C [EPI-X4 JM#21]
[12]; read-out: IC50, inhibition of CXCL12-induced recruitment of β-arrestin-2 at CXCR4
  IC50: 164 nM
[11]; AUC vs buffer-only control
  EC50: 7800 nM

## CC(C)C[C@H](NC(=O)[C@@H](NC(=O)[C@@H]1CCCN1C(=O)[C@@H](NC(=O)[C@H](CO)NC(=O)[C@@H](NC(=O)[C@H](CCC(N)=O)NC(=O)[C@@H]1CCCN1C(=O)[C@@H](NC(=O)[C@H](CCCCN)NC(=O)[C@H](CCCCN)NC(=O)[C@@H](NC(=O)[C@H](Cc1ccc(O)cc1)NC(=O)[C@H](CCCNC(=N)N)NC(=O)[C@@H](NC(=O)[C@@H](N)CC(C)C)C(C)C)[C@@H](C)O)C(C)C)C(C)C)[C@@H](C)O)[C@@H](C)O)C(=O)O [EPI-X4] (H-LVRYTKKVPQVSTPTL-OH)
[12]
  IC50: 10.2 nM

## CXCL12: C-X-C motif chemokine 12, ligand of CXCR4 and ACKR3; used as stimulus at 200 ng/mL
[13]
  cytotoxic effects in isolated chondrocytes (alamarBlue, relative fluorescence intensity): did not observe any cytotoxic effects
[14]
  cytotoxic effects in native cartilage tissue (live/dead assay): did not observe any cytotoxic effects
[15]
  gene expression of COL10A1 in isolated chondrocytes: did not significantly induce
  gene expression of MMP13 in isolated chondrocytes: did not significantly induce
[16]
  neocartilage formation, histologic assessment (score) of pellet culture: did not reveal any significant effect
[17]
  number of migrated hAC in wound healing assay: significantly increased
[18]
  migration distance of isolated hAC (live cell tracking): increased
[1]
  proliferation (Ki-67-positive cells): not altered
[2]
  Ca2+ deposition / matrix calcification (Alizarin Red S): could not find any influence
[3]
  expression of the hypertrophic marker COL10A1 during osteogenic differentiation: tended to increase
  gene expression of osteogenic markers (ALPL, RUNX2, SP7, IBSP): could not find any influence
